This note sets out measurements from US6610877B1, “Aromatic carboxylic acid derivatives” (Hoffman-La Roche Inc., priority 1993, dated 2003).

Structures are written as SMILES.

Series [1] concerns Hairless mice (HRS/J strain). As to the kind of experiment: Repair of UV-B-caused skin damage in the hairless mouse. The class given is in vivo. The note with it: three times a week, 10 weeks, Luna staining of elastin, total surface per 20 microscopic field. The text has this:
Repair of UV-B-caused Skin Damage in the Hairless Mouse Hairless mice (HRS/J strain, Jackson Labs, aged 5-7 weeks at the beginning of the experiment) were irradiated three times a week with an arrangement of 8 Westinghouse irradiation lamps (FS40) which were placed about 20 cm above the animals. The radiation dose was controlled by a commercial phototherapeutic control device. The UV-B dose was chosen such that the dosage scarcely exceeded 0.06 J/cm^2, caused a minimal erythema, but no burning or scarring. After a total dose of about 3.5 J/cm^2 there resulted a significant elastosis which was evident from a histological report and which was confirmed by measuring the elastin using a radioimmunoassay for desmosin in the total skin. The desmosin content increased by two- to three-fold after 3.5 J/cm^2 UV-B irradiation. In order to make good the skin damage, the UV irradiation was interrupted and groups of animals were treated three times a week with different doses of compounds of formula I dissolved in acetone. These solutions were prepared freshly each week such that the dosage to be administered was present in […] of acetone and were applied topically to an area of about 10 cm^2 on the backs of the animals. A controlled group was treated only with acetone. After treatment for 10 weeks the animals were killed, skin preparations were prepared and the extent of the recovery was measured quantitatively by Luna staining of the elastin. In this experimental model the skin recovery is defined as the appearance of a normal dermis which extends from the epidermis to the layer of compressed elastin. The extent of the recovery was given by the width of this zone. The area of the zone on a standard length of the histological section was measured and the result was expressed as the total surface in mm^2 per 20 microscopic field.

As a reminder, the melting point is the temperature of the solid-liquid transition. In turn, `CCCCCCCCc1cc2c(cc1/C=C/c1ccc(C(=O)O)cc1)CCC(C)(C)CC2C` (racemic) [Example 12, Rac-(E)-4-[2-(5,7,7-trimethyl-3-octyl-6,7,8,9-tetrahydro-5H-benzocyclohepten-2-yl)vinyl]benzoic acid] displayed a melting point of 182 to 183 °C.
The same measure, in the same setting: under `CCCCCCCOc1cc2c(cc1/C=C/c1ccc(C(=O)O)cc1)[C@]1(C)CCC[C@@]2(C)[C@@H]1O` (racemic) [Example 14, (E)-4-[2-[(5RS,9SR,10RS)-3-heptyloxy-10-hydroxy-5,9-dimethyl-6,7,8,9-tetrahydro-5,9-methano-5H-benzocyclohepten-2-yl]vinyl]benzoic acid] stands 89 to 90 °C; under `CCCCOc1cc2c(cc1/C=C/C=C/C(C)=C/C(=O)O)[C@]1(C)CCC[C@@]2(C)[C@@H]1O` (racemic) [Example 19, (2E,4E,6E)-(5RS,9SR,10RS)-7-(3-butoxy-10-hydroxy-5,9-dimethyl-6,7,8,9-tetrahydro-5,9-methano-5H-benzocyclohepten-2-yl)-3-methyl-hepta-2,4,6-trienoic acid], 176 to 178 °C.
Turning to `CCCCCCc1cc2c(cc1/C=C/c1ccc(C(=O)O)cc1)C(C)(C)CCC2(C)C` [Compound A, p-[(E)-2-(3-Hexyl-5,6,7,8-tetrahydro-5,5,8,8-tetramethyl-2-naphthyl)vinyl]benzoic Acid], the melting point lay in the range of 134 to 136 °C. In series [1] (0.05 μg topically in acetone), the “Recovery Zone” value is given as 9.8 ± 2.8 mm^2 • 10^−3. Further, the “Recovery Zone” value in series [1] (2 μg topically in acetone) was 27.2 ± 2.6 mm^2 • 10^−3. The “Recovery Zone” value in series [1] (10 μg topically in acetone) amounted to 35.9 ± 7.5 mm^2 • 10^−3.
In the case of `CCCCc1cc2c(cc1/C=C/c1ccc(C(=O)O)cc1)C(C)(C)CCC2(C)C` [Compound B, 4-[(E)-2-(3-Butyl-5,5,8,8-tetramethyl-5,6,7,8-tetrahydro-naphth-2-yl)vinyl]benzoic Acid], the figures for the “Recovery Zone” value in series [1] (0.5 μg topically in acetone) and in series [1] (2 μg topically in acetone) were 15.6 ± 2.74 mm^2 • 10^−3 and 20.5 ± 7.17 mm^2 • 10^−3, respectively.
As to `CCCCCCc1cc2c(cc1/C=C/C=C/C(C)=C/C(=O)O)C(C)(C)CCC2(C)C` [Compound C, (all E)-7-(3-Hexyl-5,5,8,8-tetramethyl-5,6,7,8-tetrahydro-naphthalen-2-yl)-3-methyl-hepta-2,4,6-trienoic Acid], the “Recovery Zone” value in series [1] (2 μg topically in acetone) came out at 32.8 ± 6.72 mm^2 • 10^−3; in series [1] (10 μg topically in acetone), 59.5 ± 6.71 mm^2 • 10^−3.
`CCc1cc2c(cc1/C=C/c1ccc(C(=O)O)cc1)C(C)(C)CCC2(C)C` [Compound D, p-[(E)-2-(3-Ethyl-5,6,7,8-tetrahydro-5,5,8,8-tetramethyl-2-naphthyl)vinyl]benzoic Acid]: the “Recovery Zone” value in series [1] (0.5 μg topically in acetone) was 15.5 ± 4.9 mm^2 • 10^−3; in series [1] (2 μg topically in acetone), 19.1 ± 4.9 mm^2 • 10^−3; in series [1] (10 μg topically in acetone) it was 46.5 ± 6.9 mm^2 • 10^−3.
The corresponding values for `CCCCCCCCc1cc2c(cc1/C=C/c1ccc(C(=O)O)cc1)C(C)(C)CCC2(C)C` [Compound E, p-[(E)-2-(3-Octyl-5,6,7,8-tetrahydro-5,5,8,8-tetramethyl-2-naphthyl)vinyl]benzoic Acid] are 7.48 ± 1.7 mm^2 • 10^−3, 4.70 ± 2.0 mm^2 • 10^−3 and 22.2 ± 8.3 mm^2 • 10^−3.
As to `CCCCCc1cc2c(cc1/C=C/c1ccc(C(=O)O)cc1)C(C)(C)CCC2(C)C` [Example 2, (E)-4-[2-(3-Pentyl-5,5,8,8-tetramethyl-5,6,7,8-tetrahydro-naphthalen-2-yl)vinyl]benzoic acid], the melting point lay within 173 to 174 °C.
Turning to `CCCCCc1cc2c(cc1/C=C/C=C/C(C)=C/C(=O)O)C(C)(C)CCC2(C)C` [Example 5, (2E,4E,6E)-7-(3-Pentyl-5,5,8,8-tetramethyl-5,6,7,8-tetrahydro-naphthalen-2-yl)-3-methyl-hepta-2,4,6-trienoic acid], the melting point fell in the range of 164 to 166 °C.
Same read-out and setting: as for `CCCCCc1cc2c(cc1/C=C/C=C/C(C)=C\C(=O)O)C(C)(C)CCC2(C)C` [Example 6, (2Z,4E,6E)-7-(3-Pentyl-5,5,8,8-tetramethyl-5,6,7,8-tetrahydro-naphthalen-2-yl)-3-methyl-hepta-2,4,6-trienoic acid], the figure is 170 to 174 °C; as for `CCCCCOc1cc2c(cc1/C=C/c1ccc(C(=O)O)cc1)C(C)(C)CCC2(C)C` [Example 8, (E)-4-[2-(5,5,8,8-Tetramethyl-3-pentoxy-5,6,7,8-tetrahydro-naphthalen-2-yl)vinyl]benzoic acid], 148 to 149 °C.
As to `CCCCCOc1cc2c(cc1/C=C/C=C/C(C)=C/C(=O)O)C(C)(C)CCC2(C)C` [Example 10 (2E isomer), (2E,4E,6E)-3-methyl-7-(5,5,8,8-tetramethyl-3-pentoxy-5,6,7,8-tetrahydro-naphthalen-2-yl)-hepta-2,4,6-trienoic acid], the melting point fell in the range of 162 to 163 °C.
For `CCCCCCCCc1cc2c(cc1/C=C/c1ccc(C(=O)O)cc1)CCC(C)(C)CC2` [Example 11, (E)-4-[2-(7,7-dimethyl-3-octyl-6,7,8,9-tetrahydro-5H-benzocyclohepten-2-yl)vinyl]benzoic acid], the melting point is 179.5 to 180.5 °C.
Regarding `CCCCc1cc2c(cc1/C=C/c1ccc(C(=O)O)cc1)C(C)(C)CCCC2` [Example 13 (fourth compound), (E)-4-[2-(3-butyl-9,9-dimethyl-6,7,8,9-tetrahydro-5H-benzocyclohepten-2-yl)vinyl]benzoic acid], the melting point lay within 81 to 83 °C.
Take `CCCCCCC1C2=C(CC1/C=C/c1ccc(C(=O)O)cc1)C(C)(C)CC=C2` (stereo not shown) [Example 13 (second compound), (E)-4-[2-(3-Hexyl-7,7-dimethyl-indan-2-yl)vinyl]benzoic acid]: the melting point lay in the range of 149 to 150 °C.
Same read-out and setting: as for `CCCCCCc1cc2c(cc1/C=C/c1ccc(C(=O)O)cc1)CCCCC2(C)C` [Example 13 (third compound), (E)-4-[2-(3-hexyl-5,5-dimethyl-6,7,8,9-tetrahydro-5H-benzocyclohepten-2-yl)vinyl]benzoic acid], the figure is 133 to 134 °C; as for `CCCCc1cc2c(cc1/C=C/c1ccc(C(=O)O)cc1)CCCCC2(C)C` [Example 13, (E)-4-[2-(3-Butyl-5,5-dimethyl-6,7,8,9-tetrahydro-5H-benzocyclohepten-2-yl)vinyl]benzoic acid], 184 to 186 °C.
Still for that read-out and setting: as for `CCCCCC(=O)c1cc2c(cc1/C=C/c1ccc(C(=O)O)cc1)C(C)(C)CCC2(C)C` [Example 16, (E)-4-[2-(3-hexanoyl-5,5,8,8-tetramethyl-5,6,7,8-tetrahydro-naphthalen-2-yl)vinyl]benzoic acid], the figure is 118 to 119 °C; as for `CCCCCc1cc2c(cc1C#C/C=C/C(C)=C/C(=O)O)C(C)(C)CCC2(C)C` [Example 17 (2E,4E), (2E,4E)-3-methyl-7-(5,5,8,8-tetramethyl-3-pentyl-5,6,7,8-tetrahydro-naphthalen-2-yl)-hepta-2,4-dien-6-ynoic acid], 155 to 156 °C; as for `CCC#CCOc1cc2c(cc1/C=C/c1ccc(C(=O)O)cc1)C(C)(C)CCC2(C)C` [Example 20, (E)-4-[2-(3-pent-2-ynyloxy-5,5,8,8-tetramethyl-5,6,7,8-tetrahydro-naphthalen-2-yl)-vinyl]-benzoic acid], 144 to 145 °C.
`CCC#CCOc1cc2c(cc1/C=C/C=C/C(C)=C/C(=O)O)C(C)(C)CCC2(C)C` [Example 21, (2E,4E,6E)-3-methyl-7-(3-pent-2-ynyloxy-5,5,8,8-tetramethyl-5,6,7,8-tetrahydro-naphthalen-2-yl)-hepta-2,4,6-trienoic acid] gave a melting point of 208 to 209 °C.
On the same count and under the same terms, as for `C=CCOc1cc2c(cc1/C=C/c1ccc(C(=O)O)cc1)C(C)(C)CCC2(C)C` [Example 22 (allyloxy), (E)-4-[2-(3-allyloxy-5,5,8,8-tetramethyl-5,6,7,8-tetrahydro-naphthalen-2-yl)-vinyl]-benzoic acid], the figure is 191 to 192 °C; as for `C/C=C/COc1cc2c(cc1/C=C/c1ccc(C(=O)O)cc1)C(C)(C)CCC2(C)C` [Example 22 (but-2-enyloxy), 4-[(E)-2-((E)-3-but-2-enyloxy-5,5,8,8-tetramethyl-5,6,7,8-tetrahydro-naphthalen-2-yl)-vinyl]-benzoic acid], 178 to 180 °C.
On the same count and under the same terms, under `C=CCOc1cc2c(cc1/C=C/C=C/C(C)=C/C(=O)O)C(C)(C)CCC2(C)C` [Example 23 (allyloxy), (2E,4E,6E)-7-(3-allyloxy-5,5,8,8-tetramethyl-5,6,7,8-tetrahydro-naphthalen-2-yl)-3-methyl-hepta-2,4,6-trienoic acid] stands 193 to 194 °C.
